Results on three compounds are retold here after patent US9963464B2, “Macrocyclic compounds” (Bayer Pharma Aktiengesellschaft, priority 2014, dated 2018).

Molecules are shown by their SMILES.

One test has as its system MOLM-13 cells. Description: Proliferation assay MOLM-13. The format is cell-based. As to conditions: Homo sapiens, 72-hour exposure, Cell Titre-Glo, read-out: Inhibition of MOLM-13 cell proliferation IC50. As for the experimental part:
(§1) Cultivated tumour cells (HeLa, human cervical tumour cells, ATCC CCL-2; NCI-H460, human non-small cell lung carcinoma cells, ATCC HTB-177; A2780, human ovarian carcinoma cells, ECACC #93112519; DU 145, hormone-independent human prostate carcinoma cells, ATCC HTB-81; HeLa-MaTu-ADR, multidrug-resistant human cervical carcinoma cells, EPO-GmbH Berlin; Caco-2, human colorectal carcinoma cells, ATCC HTB-37; B16F10, mouse melanoma cells, ATCC CRL-6475) were plated at a density of 5,000 cells/well (DU145, HeLa-MaTu-ADR), 3,000 cells/well (NCI-H460, HeLa), 2,500 cells/well (A2780), 1,500 cells/well (Caco-2), or 1,000 cells/well (B16F10) in a 96-well multititer plate in 200 μL of their respective growth medium supplemented 10% fetal calf serum. […] Cell proliferation was determined by staining the cells with crystal violet: the cells were fixed by adding 20 μl/measuring point of an 11% glutaric aldehyde solution for 15 minutes at room temperature. […] The extinction was determined by photometry at a wavelength of 595 nm. The change of cell number, in percent, was calculated by normalization of the measured values to the extinction values of the zero-point plate (=0%) and the extinction of the untreated (0 μm) cells (=100%). […] Cell viability was assessed after 72-hour exposure with the Cell Titre-Glo Luminescent Cell Viability Assay (Promega). […]

The next test has as its system A2780 cells. Description: Proliferation assay A2780. The format is cell-based. As to conditions: Homo sapiens, A2780, 96 h; 4 days, crystal violet; read-out: Inhibition of A2780 cell proliferation IC50. As for the experimental part: as §1

Take `CS(=N)(=O)Cc1cc2cc(c1)OCCCCOc1cc(F)ccc1-c1nc(ncc1F)N2` (racemic) [Example 1, (rac)-16,20-Difluoro-9-[(S-methylsulfonimidoyl)methyl]-2,3,4,5-tetrahydro-12H-13,17-(azeno)-11,7-(metheno)-1,6,12,14-benzodioxadiazacyclononadecine]: in the test on MOLM-13 cells, the IC50 is 4 nM.
As for `CS(=N)(=O)Cc1cc2nc(c1)OCCCOc1cc(F)ccc1-c1cc(ncc1F)N2` (racemic) [Example 5, (rac)-15,19-Difluoro-8-[(S-methylsulfonimidoyl)methyl]-3,4-dihydro-2H,11H-10,6-(azeno)-12,16-(metheno)-1,5,11,13-benzodioxadiazacyclooctadecine], in the test on MOLM-13 cells, the IC50 was found to be 2 nM.
In the case of `CSCc1cc2nc(c1)OCCCCOc1cc(F)ccc1-c1cc(ncc1F)N2` [Example 12, 16,20-Difluoro-9-[(methylsulfanyl)methyl]-2,3,4,5-tetrahydro-12H-11,7-(azeno)-13,17-(metheno)-1,6,12,14-benzodioxadiazacyclononadecine], in the test with A2780 cells, the IC50 was 115 nM.
